Experimental data reported in ChEMBL document CHEMBL5338828, “Structure-Activity Relationships of Bis-Intercalating Peptides and Their Application as Antibody-Drug Conjugate Payloads” (J Med Chem, 2023).
Calls of active or inactive are those of the source. The rule behind the calls is not given here. Where a SMILES comes first, the peptide text is derived from it. Bridges are numbered along the chain shown (N, C = ends). Roman numbers before positions name the chains, in order. [ ]: non-standard residue; d: D form. The star is where a group is joined. Quinaldoyl(3-OH) = O=C(c1nc2ccccc2cc1O)*; NMeV = CN[C@H](C(=O)O)C(C)C; Pip = O=C(O)[C@@H]1CCCCN1; dDap = NC[C@@H](N)C(=O)O

What was measured:
[1] = Stability in mouse plasma assessed as half-life at 1 uM measured upto 1440 min by UHPLC-MS/MS analysis; format: ADME, cell-free
[2] = system: OVCAR-3; assay: Cytotoxicity against human OVCAR-3 cells assessed as inhibition of cell growth incubated for 5 days by CellTiter-Glo luminescence assay; format: functional, cell-based; conditions: OVCAR-3, 120 h
[3] = system: EBC-1; assay: Cytotoxicity against human EBC-1 cells assessed as inhibition of cell growth incubated for 5 days by CellTiter-Glo luminescence assay; format: functional, cell-based; conditions: EBC-1, 120 h
[4] = system: IGROV-1; assay: Cytotoxicity against human IGROV-1 cells assessed as inhibition of cell growth incubated for 5 days by CellTiter-Glo luminescence assay; format: functional, cell-based; conditions: IGROV-1, 120 h
[5] = Stability in mouse plasma at 1 uM measured upto 1440 min by UHPLC-MS/MS analysis; format: ADME, cell-free; conditions: 24 h
[6] = Retention time of the compound by HPLC analysis; format: physicochemical
[7] = Binding affinity to biotinylated hairpin DNA (unknown origin) assessed as binding constant by SPR analysis
[8] = system: Clupeidae; assay: Binding affinity to Herring sperm DNA assessed as melting temperature by differential scanning calorimetric analysis
[9] = Binding affinity to biotinylated hairpin DNA (unknown origin) at 0.312 to 5 uM by SPR analysis; conditions: dose 0.312-5 µM
[10] = Stability in mouse plasma assessed as parent compound remaining measured after 24 hrs by LC-MS analysis; format: ADME, cell-free; conditions: read-out: Stability

## CCOC(=O)[C@H](CCc1ccccc1)N[C@@H](C)C(=O)N1CCC[C@H]1C(=O)O [ENALAPRIL]
[1]
  half-life at 1 µM: 2.83 h

## CC(C)[C@H]1C(=O)NC[C@@H](NC(=O)c2nc3ccccc3cc2O)C(=O)N2CCCC[C@H]2C(=O)NCC(=O)N(C)CC(=O)N(C)[C@@H](C(C)C)C(=O)NC[C@@H](NC(=O)c2nc3ccccc3cc2O)C(=O)N2CCCC[C@H]2C(=O)NCC(=O)N(C)CC(=O)N1C
[2]
  IC50: 18 nM
[3]
  IC50: 46 nM
[4]
  IC50: 39 nM
[5]
  Stability: Stable
[6]
  Retention_time: 17.1 min
[7]
  Kd: 3300 nM
[8]
  Tm: 88 °C

## CC(C)[C@H]1C(=O)NCC(=O)N(C)CC(=O)N2CCCC[C@H]2C(=O)NC[C@@H](NC(=O)c2nc3ccccc3cc2O)C(=O)N(C)[C@@H](C(C)C)C(=O)NCC(=O)N(C)CC(=O)N2CCCC[C@H]2C(=O)NC[C@@H](NC(=O)c2nc3ccccc3cc2O)C(=O)N1C
[6]
  Retention_time: 16.8 min
[9]
  Activity: inactive

## CC(C)[C@H]1C(=O)NC[C@@H](NC(=O)c2nc3ccccc3cc2O)C(=O)N2CCCC[C@H]2C(=O)NCC(=O)NCC(=O)N(C)[C@@H](C(C)C)C(=O)NC[C@@H](NC(=O)c2nc3ccccc3cc2O)C(=O)N2CCCC[C@H]2C(=O)NCC(=O)NCC(=O)N1C (I: {Quinaldoyl(3-OH)}-[dDap][Pip]GG[NMeV] / II: {Quinaldoyl(3-OH)}-[dDap][Pip]GG[NMeV]; amide I:1-II:C, I:C-II:1)
[6]
  Retention_time: 15.1 min
[9]
  Activity: inactive

## CC(C)[C@H]1C(=O)OC[C@@H](NC(=O)c2nc3ccccc3cc2O)C(=O)N2CCCC[C@H]2C(=O)NCC(=O)N(C)CC(=O)N(C)[C@@H](C(C)C)C(=O)OC[C@@H](NC(=O)c2nc3ccccc3cc2O)C(=O)N2CCCC[C@H]2C(=O)NCC(=O)N(C)CC(=O)N1C
[2]
  IC50: 1 nM
[3]
  IC50: 1.4 nM
[4]
  IC50: 1.6 nM
[1]
  half-life at 1 µM: 5.5 h
[10]
  remaining at 24 h: < 5%
[6]
  Retention_time: 21.6 min
[7]
  Kd: 360 nM
[8]
  Tm: 102 °C

## CC(C)[C@H]1C(=O)NC[C@@H](NC(=O)c2nc3ccccc3cc2O)C(=O)N2CCCC[C@H]2C(=O)NCC(=O)N(C)CC(=O)N(C)[C@@H](C(C)C)C(=O)OC[C@@H](NC(=O)c2nc3ccccc3cc2O)C(=O)N2CCCC[C@H]2C(=O)NCC(=O)N(C)CC(=O)N1C
[2]
  IC50: 0.6 nM
[3]
  IC50: 0.6 nM
[4]
  IC50: 1.2 nM
[1]
  half-life at 1 µM: 12 h
[6]
  Retention_time: 19.6 min
[7]
  Kd: 80 nM
[8]
  Tm: 97 °C

## CC(C)[C@H]1COC[C@@H](NC(=O)c2nc3ccccc3cc2O)C(=O)N2CCCC[C@H]2C(=O)NCC(=O)N(C)CC(=O)N(C)[C@@H](C(C)C)C(=O)NC[C@@H](NC(=O)c2nc3ccccc3cc2O)C(=O)N2CCCC[C@H]2C(=O)NCC(=O)N(C)CC(=O)N1C
[2]
  IC50: 2.9 nM
[3]
  IC50: 5.4 nM
[4]
  IC50: 6.4 nM
[5]
  Stability: Stable
[6]
  Retention_time: 18.4 min
[7]
  Kd: 300 nM
[8]
  Tm: 92 °C
